Data from patent publication EP0537092A1, “Infracellular vesicular vectors and their application in cosmetic and medical compositions and culture media” (priority 1991, dated 1993).
Where two headings read alike, the source gives them in different places.

What was measured:
Format in all cases: cell-based, humaine
fibroblastes [1] = settings: for prolifération des fibroblastes traités avec le Palmitate d'hydroxyproline: 10^4 cellules par puit
Description: (§1) Les résultats des essais présentés ci-après ont été obtenus selon la méthodologie suivante : Conditions de culture : les fibroblastes sont obtenus à partir d'explants de peau humaine. Les cellules sont maintenues en culture dans du milieu DMEM (Gibco) additionné de 10 % de sérum de veau foetal (Gibco) et d'antibiotiques (pénicilline 100 U/ml, streptomycine 100 µg/ml).
(§2) Les subcultures sont réalisées par trypsination (Trypsin-EDTA, Gibco). Les cellules sont utilisées du 2e au 10e passage.
(§3) Conditions de traitements : Les cultures de fibroblastes témoins se réferent aux cultures avec vecteurs sans principe actif, en quantité similaire aux autres traitements. Les cultures traitées avec la molécule en solution se réfèrent aux conditions de la culture témoin et de la molécule sous forme soluble.
(§4) Les cultures traitées avec la forme vectoriale de la molécule impliquent que la molécule active soit inclue préalablement dans les vecteurs.
[…] Puis on ajoute le sel de tétrazolium jaune (5 mg / ml). Il est réduit par les réductases mitochondriales des cellules vivantes en un produit formazan violet qui est ensuite solubilisé par de l'HCl 0,04 N dans de l'isopropanol.
La réaction colorée est lue à une longueur d'onde de 570 nm par un Multiskan Titertek (Flow Laboratories) et exprimée en densité optique.

collagène de type III = assay: radioimmunoassay of soluble collagen type III in fibroblast culture supernatant
Description: as §1, §2, §3, §4
(§5) Evaluation des collagènes solubles par dosage radioimmunologique : On prélève 100 µl de surnageant de culture et on y ajoute 100 µl d'anticorps anticollagène de type I ou anti-collagène de type III et 200 µl de PBS.

[2] = test system: collagénase interstitielle (MMP-1); assay: collagenase activity in the culture medium of fibroblasts; settings: for Collagénase: Temps : 48 h, factor of change (summary table)
Description: as §1, §2, §3, §4
Mesure de l'activité collagénasique dans le milieu de culture
On mesure la collagénase interstitielle qui dégrade les collagènes interstitiels natifs de type I-III. • a) Préparation du substrat : le collagène de type I, marqué au carbone-14, en solution dans CH3COOH 0,1 M est neutralisé à pH 7,4 par du Tris 1 M et dilué avec le tampon NaCl 0,15 M/CaCl2, 4 mM/Tris-HCl 50 mM, pH 7,4 contenant du NEM 0,5 mM et du PMSF 0,1mM à raison de […] substrat (= 10000 cpm/essai). • b) Dosage de la collagénase: 100 µl de milieu sont activés par 10 µl de trypsine (1 mg/ml) à 37°C pendant 10 mn, suivi de l'addition de 10 µl de SBTI (5 mg/ml): 10 mn à température ambiante. 100 µl de milieu sont aussi testés sans activation par la trypsine (mesure de la forme active de l'enzyme).
Le substrat (10000 cpm/essai) est ajouté, éventuellement en présence d'EDTA 25 mM, le volume final étant de 250 µl. La réaction se déroule pendant 18 h à 25°C puis est stoppée par addition de 20 µl d'EDTA 250 mM (10 mn à température ambiante).Le mélange est ensuite chauffé 10 mn à 39°C.
Le collagène non dégradé est précipité par l'éthanol à la concentration finale de 18 % (30 mn à température ambiante).
Finalement, le mélange est centrifugé à 6000 g pendant 30 mn à 4°C. Des aliquots de 200 µl des surnageants sont mélangés avec 5 ml de liquide scintillant aqueux puis comptés pour leur radioactivité.
Une unité de collagénase est définie comme la quantité d'enzyme nécessaire pour dégrader 1 µg de collagène natif par heure à 25°C.

fibroblastes [3] = assay: summary conclusion on modulation of fibroblast activity (Tableau 10); settings: Temps : 48 h
Source text: Le tableau 10 ci-après résume les résultats obtenus. TABLEAU 10
Ce tableau montre bien la capacité qu'ont les vecteurs selon l'invention à moduler l'activité des fibroblastes lorsqu'ils portent à leur surface certaines fonctions hydrophiles fixées sur ledit vecteur par un ester ou une amide d'acide gras.

collagène de type I = test system: collagène de type I
Description: as §1, §2, §3, §4, §5

## CCCCCCCCCCCCCCCC(=O)OC[C@H](O)[C@H]1OC(=O)C(O)=C1O [palmitate d'ascorbyle en solution, palmitate d'ascorbyle]
Fibroblastes [1]; Temps : 48 h, 25 µg/ml
  Cytotoxicité Test MTT: non
collagène de type III; Skin fibroblast, Temps : 48 h, 25 µg/ml, factor of change (summary table), read-out: Synthèse collag. III
  fold induction at 25 µg/mL: 30
[2]; 25 µg/ml
  Collagénase: =
Fibroblastes [3]; 25 µg/ml
  CONCLUSION à 4.10⁵cell.: Stimulants non sélectifs

## Palmitate d'hydroxyproline [Palmitate d'hydroxyproline Solution]
Fibroblastes [1]; 24 heures, 1 µg / ml
  prolifération des fibroblastes traités avec le Palmitate d'hydroxyproline: 0,493 ± 0,029 densité optique
Fibroblastes [1]; 24 heures, 5 µg / ml
  prolifération des fibroblastes traités avec le Palmitate d'hydroxyproline: 0,492 ± 0,016 densité optique
Fibroblastes [1]; 24 heures, 10 µg / ml
  prolifération des fibroblastes traités avec le Palmitate d'hydroxyproline: 0,502 ± 0,019 densité optique
Fibroblastes [1]; 24 heures, 20 µg / ml
  prolifération des fibroblastes traités avec le Palmitate d'hydroxyproline: 0,457 ± 0,022 densité optique
Fibroblastes [1]; 48 heures, 1 µg / ml
  prolifération des fibroblastes traités avec le Palmitate d'hydroxyproline: 0,494 ± 0,012 densité optique
Fibroblastes [1]; 48 heures, 5 µg / ml
  prolifération des fibroblastes traités avec le Palmitate d'hydroxyproline: 0,513 ± 0,025 densité optique
Fibroblastes [1]; 48 heures, 10 µg / ml
  prolifération des fibroblastes traités avec le Palmitate d'hydroxyproline: 0,511 ± 0,020 densité optique
Fibroblastes [1]; 48 heures, 20 µg / ml
  prolifération des fibroblastes traités avec le Palmitate d'hydroxyproline: 0,471 ± 0,028 densité optique
Fibroblastes [1]; 72 heures, 1 µg / ml
  prolifération des fibroblastes traités avec le Palmitate d'hydroxyproline: 0,490 ± 0,019 densité optique
Fibroblastes [1]; 72 heures, 5 µg / ml
  prolifération des fibroblastes traités avec le Palmitate d'hydroxyproline: 0,500 ± 0,028 densité optique
Fibroblastes [1]; 72 heures, 10 µg / ml
  prolifération des fibroblastes traités avec le Palmitate d'hydroxyproline: 0,496 ± 0,017 densité optique
Fibroblastes [1]; human, skin fibroblasts
  dose à partir de laquelle une cytotoxicité est détectée: ≥ 20 µg/mL
collagène de type I; 24 heures, 1 µg/ml
  synthèse de collagène type I par des fibroblastes traités avec le palmitate d'hydroxyproline: 268 ± 18 ng/mL
collagène de type I; 24 heures, 5 µg/ml
  synthèse de collagène type I par des fibroblastes traités avec le palmitate d'hydroxyproline: 232 ± 10 ng/mL
collagène de type I; 48 heures, 1 µg/ml
  synthèse de collagène type I par des fibroblastes traités avec le palmitate d'hydroxyproline: 519 ± 37 ng/mL
collagène de type I; 72 heures, 1 µg/ml
  synthèse de collagène type I par des fibroblastes traités avec le palmitate d'hydroxyproline: 513 ± 77 ng/mL
collagène de type I; 72 heures, 5 µg/ml
  synthèse de collagène type I par des fibroblastes traités avec le palmitate d'hydroxyproline: 470 ± 5 ng/mL
collagène de type III; 24 heures, 1 µg/ml
  synthèse de collagène type III par des fibroblastes traités avec le palmitate d'hydroxyproline: 295 ± 24 ng/mL
collagène de type III; 24 heures, 5 µg/ml
  synthèse de collagène type III par des fibroblastes traités avec le palmitate d'hydroxyproline: 281 ± 16 ng/mL
collagène de type III; 48 heures, 1 µg/ml
  synthèse de collagène type III par des fibroblastes traités avec le palmitate d'hydroxyproline: 588 ± 69 ng/mL
collagène de type III; 48 heures, 5 µg/ml
  synthèse de collagène type III par des fibroblastes traités avec le palmitate d'hydroxyproline: 519 ± 20 ng/mL
collagène de type III; 72 heures, 1 µg/ml
  synthèse de collagène type III par des fibroblastes traités avec le palmitate d'hydroxyproline: 628 ± 161 ng/mL
collagène de type III; 72 heures, 5 µg/ml
  synthèse de collagène type III par des fibroblastes traités avec le palmitate d'hydroxyproline: 548 ± 24 ng/mL
[2]; 40 µg/ml
  Collagénase: =
[2]; cultures de fibroblastes
  dose qui stimule de manière significative la synthèse de la collagénase: 1 µg/mL
Fibroblastes [3]; 40 µg/ml
  CONCLUSION à 4.10⁵cell.: inhibit. des collagènes.

## O=C(O)[C@@H]1C[C@@H](O)CN1 [Hydroxyproline libre, Hydroxyproline]
Fibroblastes [1]; Temps : 48 h, 10 µg/ml
  Cytotoxicité Test MTT: non
Fibroblastes [1]; Temps : 48 h, 10 µg/ml, factor of change (summary table)
  Prolifération: =
collagène de type III; Skin fibroblast, Temps : 48 h, 10 µg/ml, factor of change (summary table), read-out: Synthèse collag. III
  fold induction at 10 µg/mL: 2
[2]; 10 µg/ml
  Collagénase: =
Fibroblastes [3]; 10 µg/ml
  CONCLUSION à 4.10⁵cell.: Stimulant sélectif du collagène I
